This note sets out measurements from ChEMBL document CHEMBL1201862, “PubChem BioAssay data set” (2004).

Structures are written as SMILES. Activity calls are given as the source filed them.

Among the targets are Cytochrome P450 2D6 (Homo sapiens, UniProt P10635); Cytochrome P450 3A4 (Homo sapiens, UniProt P08684); Cytochrome P450 2C9 (Homo sapiens, UniProt P11712).
In series [1] the target is T1, Acyl-homoserine lactone acylase PvdQ (Pseudomonas aeruginosa (strain LESB58), UniProt Q9I194).
T1 sequence (Q9I194 whole entry): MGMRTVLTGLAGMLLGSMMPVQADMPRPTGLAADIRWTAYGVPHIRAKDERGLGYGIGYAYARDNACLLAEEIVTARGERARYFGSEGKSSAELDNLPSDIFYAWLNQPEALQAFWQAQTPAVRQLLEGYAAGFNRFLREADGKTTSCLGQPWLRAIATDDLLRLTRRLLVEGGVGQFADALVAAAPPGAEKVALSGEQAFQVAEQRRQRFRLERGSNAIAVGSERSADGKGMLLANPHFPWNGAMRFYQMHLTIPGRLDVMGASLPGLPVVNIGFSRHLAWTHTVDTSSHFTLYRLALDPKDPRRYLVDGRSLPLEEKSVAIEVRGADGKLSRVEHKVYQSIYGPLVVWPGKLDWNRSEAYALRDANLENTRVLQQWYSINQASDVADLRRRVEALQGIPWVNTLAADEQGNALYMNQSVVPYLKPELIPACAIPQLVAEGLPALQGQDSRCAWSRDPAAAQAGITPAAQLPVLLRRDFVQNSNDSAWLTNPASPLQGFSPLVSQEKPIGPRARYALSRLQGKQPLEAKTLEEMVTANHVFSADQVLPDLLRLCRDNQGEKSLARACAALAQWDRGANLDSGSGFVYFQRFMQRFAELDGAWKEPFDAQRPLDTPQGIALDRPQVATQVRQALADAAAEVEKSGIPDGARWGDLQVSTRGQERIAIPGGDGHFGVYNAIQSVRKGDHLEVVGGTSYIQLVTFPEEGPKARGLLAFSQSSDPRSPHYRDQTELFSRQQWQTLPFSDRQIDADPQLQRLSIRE
Put plainly: PvdQ acylase enzyme activity blockers – biochemical, fluorescence, plate reader and imaging, cherry-picks, dose response (AID 493231).

Series [2] addresses DNA dC->dU-editing enzyme APOBEC-3A (Homo sapiens, UniProt P31941). Briefly: Dose Response confirmation of small molecule APOBEC3A DNA Deaminase Inhibitors via a fluorescence-based single-stranded DNA deaminase assay. [Related pubchem assays (depositor defined):AID493011, AID493024]. It counts as functional.
For series [3], the target named is DNA dC->dU-editing enzyme APOBEC-3G (Homo sapiens, UniProt Q9HC16). In kind it is functional.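 Further: Dose-response counterscreen measuring inhibition of APOBEC3G DNA deaminase activity, run while confirming APOBEC3A inhibitors.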
A short description of the next series: cells. In kind it is functional.
The nature of series [4]: THP-1 cell cytotoxicity, dose response, cytotoxicity control for non-replicating M. tuberculosis project (AID 489025). In kind it is functional.
Another series addresses Cytochrome P450 2C19 (Homo sapiens, UniProt P33261). Put plainly: Cytochrome panel assay with activity outcomes. Panel member name: p450-cyp2c19 Compounds with AC50 equal or less than 10 uM are considered active. It counts as functional. Conditions: read-out: AC50.
The target of series [5] is T2, Neuropeptide Y receptor type 2 (Homo sapiens, UniProt P49146).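 Further: HEK293 cells expressing the receptor and a CNG channel; stimulus was NPY near EC95 followed by isoproterenol to raise cAMP; antagonist potency measured as restoring cAMP signal that NPY suppresses.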
T2 sequence (P49146 whole entry): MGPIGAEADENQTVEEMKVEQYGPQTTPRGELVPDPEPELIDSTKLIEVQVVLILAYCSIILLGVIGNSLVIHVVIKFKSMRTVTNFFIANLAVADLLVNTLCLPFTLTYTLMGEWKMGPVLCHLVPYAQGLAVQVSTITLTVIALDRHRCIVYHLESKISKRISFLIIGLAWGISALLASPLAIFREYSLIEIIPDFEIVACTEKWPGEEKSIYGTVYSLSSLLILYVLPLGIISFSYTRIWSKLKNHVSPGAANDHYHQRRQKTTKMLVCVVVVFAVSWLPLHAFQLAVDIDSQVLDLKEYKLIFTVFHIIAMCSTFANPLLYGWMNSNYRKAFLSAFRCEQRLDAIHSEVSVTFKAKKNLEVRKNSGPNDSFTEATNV
In kind it is functional, cell-based.

Series [6] has as its target T3, Neuropeptide Y receptor type 1 (Homo sapiens, UniProt P25929).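 Further: HEK293 cells with a CNG channel challenged with NPY then isoproterenol; potency as antagonist that reverses NPY suppression of cAMP signal.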
T3 sequence (P25929 whole entry): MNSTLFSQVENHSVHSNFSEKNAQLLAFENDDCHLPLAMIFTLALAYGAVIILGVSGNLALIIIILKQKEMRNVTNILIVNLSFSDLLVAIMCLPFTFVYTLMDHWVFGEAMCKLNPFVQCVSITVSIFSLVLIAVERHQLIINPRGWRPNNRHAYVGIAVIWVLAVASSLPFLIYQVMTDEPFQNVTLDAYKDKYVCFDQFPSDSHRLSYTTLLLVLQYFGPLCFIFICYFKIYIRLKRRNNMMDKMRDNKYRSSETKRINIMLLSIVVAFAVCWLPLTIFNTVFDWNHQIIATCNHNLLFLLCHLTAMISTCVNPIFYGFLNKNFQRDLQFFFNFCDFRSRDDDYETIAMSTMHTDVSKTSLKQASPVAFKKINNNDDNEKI
In kind it is functional.

A short description of series [7]: A cytotoxicity screen of small molecule inhibitors of the PhoP region in Salmonella typhi identified in the primary screen. [Related pubchem assays: 1850, 1864, 1985 ]. It counts as functional.
In series [8] the target is T4, Estrogen receptor beta (Homo sapiens, UniProt Q92731). Put plainly: blockers of SRC-3 recruitment to ERβ – biochemical, ELISA, streptavidin-HRP readout, orthogonal assay, confirmation (AID 1060).
For series [9], the target named is T4, Estrogen receptor beta.
In series [10] the target is Eukaryotic translation initiation factor 4E (Mus musculus, UniProt P63073). Put plainly: blockers of eIF4G binding by eIF4E – biochemical, TR-FRET, dose response (AID 855).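 Further: potency for disrupting eIF4E binding to eIF4GI seen as loss of FRET.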 In kind it is functional.
A short description of series [11]: Luminescence Cell-Based Dose Retest to Confirm Inhibitors of Cancer Stem Cells. [Related pubchem assays (depositor defined):AID2717, AID2721]. In kind it is functional. The note with it: Homo sapiens.
A further series relates to Vero. Briefly: mammalian cell viability reduction – secondary assay, cytotoxicity control for West Nile virus antiviral project, dose response (AID 1650). In kind it is functional. The note with it: Chlorocebus sabaeus.
Series [12] has as its target T5, Replicative DNA helicase DnaB (Mycobacterium tuberculosis, UniProt P9WMR3).
T5 sequence (P9WMR3 whole entry): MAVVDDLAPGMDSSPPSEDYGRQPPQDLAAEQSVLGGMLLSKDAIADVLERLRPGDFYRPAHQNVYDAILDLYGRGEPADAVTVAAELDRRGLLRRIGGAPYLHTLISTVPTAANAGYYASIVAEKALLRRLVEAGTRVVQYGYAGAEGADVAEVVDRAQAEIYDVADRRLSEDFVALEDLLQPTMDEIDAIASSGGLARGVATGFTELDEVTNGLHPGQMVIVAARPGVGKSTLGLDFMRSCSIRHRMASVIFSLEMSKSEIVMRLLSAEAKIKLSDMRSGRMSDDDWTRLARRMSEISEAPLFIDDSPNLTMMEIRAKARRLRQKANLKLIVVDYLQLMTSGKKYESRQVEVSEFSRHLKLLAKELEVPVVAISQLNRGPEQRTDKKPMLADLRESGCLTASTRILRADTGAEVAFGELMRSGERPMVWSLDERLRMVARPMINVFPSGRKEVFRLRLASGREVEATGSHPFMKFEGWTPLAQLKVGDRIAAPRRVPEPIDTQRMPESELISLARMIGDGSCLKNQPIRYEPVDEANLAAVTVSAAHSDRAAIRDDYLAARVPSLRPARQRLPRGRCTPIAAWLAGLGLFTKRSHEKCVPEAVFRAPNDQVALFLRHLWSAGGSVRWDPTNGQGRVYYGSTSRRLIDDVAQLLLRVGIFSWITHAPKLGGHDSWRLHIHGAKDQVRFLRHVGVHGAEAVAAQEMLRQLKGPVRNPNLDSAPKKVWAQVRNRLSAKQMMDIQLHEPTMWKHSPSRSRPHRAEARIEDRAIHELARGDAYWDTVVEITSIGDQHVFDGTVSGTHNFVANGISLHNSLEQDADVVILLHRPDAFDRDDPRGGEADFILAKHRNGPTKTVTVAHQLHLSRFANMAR
Put plainly: DnaB intein splicing inhibitors, dose response, biochemical, cell-free fluorescence (AID 449749). In kind it is functional.

For the next series, the target named is T6, Protein RecA (Mycobacterium tuberculosis, UniProt P9WHJ3).
T6 sequence (P9WHJ3 whole entry): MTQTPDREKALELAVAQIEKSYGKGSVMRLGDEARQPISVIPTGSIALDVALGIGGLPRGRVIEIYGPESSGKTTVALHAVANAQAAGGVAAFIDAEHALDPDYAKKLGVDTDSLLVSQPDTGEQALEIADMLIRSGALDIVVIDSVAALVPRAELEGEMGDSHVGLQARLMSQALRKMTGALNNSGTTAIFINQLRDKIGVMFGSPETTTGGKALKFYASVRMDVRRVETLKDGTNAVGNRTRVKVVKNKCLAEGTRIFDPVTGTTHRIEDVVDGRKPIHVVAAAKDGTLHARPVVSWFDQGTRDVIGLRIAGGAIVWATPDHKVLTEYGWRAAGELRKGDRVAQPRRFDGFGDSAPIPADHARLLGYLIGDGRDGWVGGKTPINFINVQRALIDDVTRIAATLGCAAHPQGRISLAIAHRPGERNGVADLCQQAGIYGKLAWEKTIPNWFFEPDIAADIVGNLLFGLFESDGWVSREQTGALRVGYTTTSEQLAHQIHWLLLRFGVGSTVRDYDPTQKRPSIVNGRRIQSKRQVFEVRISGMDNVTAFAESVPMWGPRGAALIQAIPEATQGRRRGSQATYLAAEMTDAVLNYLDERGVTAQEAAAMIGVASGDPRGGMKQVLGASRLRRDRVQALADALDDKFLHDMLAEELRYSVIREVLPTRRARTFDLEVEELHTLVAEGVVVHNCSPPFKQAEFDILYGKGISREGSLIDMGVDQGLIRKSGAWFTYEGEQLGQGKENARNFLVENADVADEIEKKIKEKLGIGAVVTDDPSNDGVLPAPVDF
Put plainly: Fluorescence Cell-Free Homogeneous Dose Retest to Identify Inhibitors of RecA-Intein Splicing Activity. [Related pubchem assays (depositor defined):AID2097, AID2223, AID489010, AID492950]. In kind it is functional.

Chain of DNA dC->dU-editing enzyme APOBEC-3G (Q9HC16 whole entry): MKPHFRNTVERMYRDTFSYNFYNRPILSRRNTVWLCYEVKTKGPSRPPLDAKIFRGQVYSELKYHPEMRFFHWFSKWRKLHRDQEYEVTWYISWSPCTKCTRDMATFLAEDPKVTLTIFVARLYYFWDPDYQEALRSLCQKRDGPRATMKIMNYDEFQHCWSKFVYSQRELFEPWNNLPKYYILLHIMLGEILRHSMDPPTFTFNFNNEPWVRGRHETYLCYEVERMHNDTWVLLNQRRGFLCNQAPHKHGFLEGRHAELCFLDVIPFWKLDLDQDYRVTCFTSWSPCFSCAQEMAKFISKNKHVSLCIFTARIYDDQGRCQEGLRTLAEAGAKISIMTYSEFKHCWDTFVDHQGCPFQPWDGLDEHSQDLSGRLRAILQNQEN
Chain of DNA dC->dU-editing enzyme APOBEC-3A (P31941 whole entry): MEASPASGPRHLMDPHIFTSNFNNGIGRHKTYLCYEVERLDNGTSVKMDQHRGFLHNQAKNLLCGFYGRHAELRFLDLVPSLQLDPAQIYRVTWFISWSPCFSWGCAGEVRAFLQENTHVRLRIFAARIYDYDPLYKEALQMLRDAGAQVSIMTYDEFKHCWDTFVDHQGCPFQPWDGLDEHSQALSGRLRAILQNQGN
Chain of Cytochrome P450 3A4 (P08684 whole entry): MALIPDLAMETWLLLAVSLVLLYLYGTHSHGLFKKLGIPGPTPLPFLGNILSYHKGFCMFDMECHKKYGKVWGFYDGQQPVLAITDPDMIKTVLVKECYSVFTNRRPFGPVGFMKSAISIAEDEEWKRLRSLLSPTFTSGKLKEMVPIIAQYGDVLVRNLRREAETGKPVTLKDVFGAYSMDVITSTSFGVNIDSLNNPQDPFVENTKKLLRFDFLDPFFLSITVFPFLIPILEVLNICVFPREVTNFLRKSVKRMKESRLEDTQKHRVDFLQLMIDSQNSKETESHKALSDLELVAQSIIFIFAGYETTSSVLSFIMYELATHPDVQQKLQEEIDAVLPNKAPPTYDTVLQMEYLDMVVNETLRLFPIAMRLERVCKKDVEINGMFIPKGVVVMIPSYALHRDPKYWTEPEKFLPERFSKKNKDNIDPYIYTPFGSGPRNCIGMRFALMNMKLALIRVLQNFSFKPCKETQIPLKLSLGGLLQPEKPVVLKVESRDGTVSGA
T4 sequence (Q92731 whole entry): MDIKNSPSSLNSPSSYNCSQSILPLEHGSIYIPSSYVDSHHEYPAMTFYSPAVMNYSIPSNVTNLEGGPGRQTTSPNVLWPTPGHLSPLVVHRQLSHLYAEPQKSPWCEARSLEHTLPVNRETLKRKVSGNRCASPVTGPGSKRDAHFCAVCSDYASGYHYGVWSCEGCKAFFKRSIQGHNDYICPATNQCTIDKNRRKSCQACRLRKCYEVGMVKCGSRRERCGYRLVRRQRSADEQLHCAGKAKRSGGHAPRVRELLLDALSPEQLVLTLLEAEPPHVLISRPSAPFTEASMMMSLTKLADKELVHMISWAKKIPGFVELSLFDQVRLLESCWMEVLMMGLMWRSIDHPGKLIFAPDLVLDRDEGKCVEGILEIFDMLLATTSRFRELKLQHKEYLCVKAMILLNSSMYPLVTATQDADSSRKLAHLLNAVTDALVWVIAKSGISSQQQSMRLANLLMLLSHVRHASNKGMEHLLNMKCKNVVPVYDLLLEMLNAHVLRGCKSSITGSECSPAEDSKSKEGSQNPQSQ
Chain of Cytochrome P450 2D6 (P10635 whole entry): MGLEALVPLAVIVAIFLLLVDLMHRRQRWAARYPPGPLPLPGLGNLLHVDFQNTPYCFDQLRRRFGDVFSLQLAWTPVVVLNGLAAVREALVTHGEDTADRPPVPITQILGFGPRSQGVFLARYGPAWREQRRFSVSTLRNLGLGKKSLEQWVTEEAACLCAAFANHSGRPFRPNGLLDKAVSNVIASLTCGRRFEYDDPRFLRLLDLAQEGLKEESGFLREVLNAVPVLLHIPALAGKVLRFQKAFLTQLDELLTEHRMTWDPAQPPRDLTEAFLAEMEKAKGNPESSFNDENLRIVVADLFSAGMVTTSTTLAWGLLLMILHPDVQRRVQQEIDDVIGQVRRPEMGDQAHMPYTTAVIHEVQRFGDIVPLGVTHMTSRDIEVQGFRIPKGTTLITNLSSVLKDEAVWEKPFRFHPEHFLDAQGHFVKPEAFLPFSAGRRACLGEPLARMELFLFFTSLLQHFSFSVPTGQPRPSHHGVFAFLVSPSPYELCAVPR
Chain of Cytochrome P450 2C19 (P33261 whole entry): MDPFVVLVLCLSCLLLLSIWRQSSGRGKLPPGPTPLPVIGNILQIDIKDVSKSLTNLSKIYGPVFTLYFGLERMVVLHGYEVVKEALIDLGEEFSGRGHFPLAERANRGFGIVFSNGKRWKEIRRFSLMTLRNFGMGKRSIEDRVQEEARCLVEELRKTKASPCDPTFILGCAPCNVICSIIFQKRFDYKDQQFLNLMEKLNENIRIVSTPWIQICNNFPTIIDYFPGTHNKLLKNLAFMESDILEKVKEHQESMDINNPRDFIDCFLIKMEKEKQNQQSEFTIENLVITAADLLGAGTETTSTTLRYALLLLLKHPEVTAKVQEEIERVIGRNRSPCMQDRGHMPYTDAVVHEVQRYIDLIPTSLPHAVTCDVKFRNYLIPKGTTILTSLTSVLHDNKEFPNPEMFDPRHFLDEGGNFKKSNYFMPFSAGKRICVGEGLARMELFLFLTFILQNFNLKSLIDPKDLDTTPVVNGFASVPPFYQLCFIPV
Chain of Eukaryotic translation initiation factor 4E (P63073 whole entry): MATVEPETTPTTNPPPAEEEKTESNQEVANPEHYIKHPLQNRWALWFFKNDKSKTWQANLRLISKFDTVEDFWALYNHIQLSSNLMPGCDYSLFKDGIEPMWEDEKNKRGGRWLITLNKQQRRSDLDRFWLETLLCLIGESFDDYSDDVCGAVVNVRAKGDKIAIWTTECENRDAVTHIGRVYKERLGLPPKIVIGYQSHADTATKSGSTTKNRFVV
Chain of Cytochrome P450 2C9 (P11712 whole entry): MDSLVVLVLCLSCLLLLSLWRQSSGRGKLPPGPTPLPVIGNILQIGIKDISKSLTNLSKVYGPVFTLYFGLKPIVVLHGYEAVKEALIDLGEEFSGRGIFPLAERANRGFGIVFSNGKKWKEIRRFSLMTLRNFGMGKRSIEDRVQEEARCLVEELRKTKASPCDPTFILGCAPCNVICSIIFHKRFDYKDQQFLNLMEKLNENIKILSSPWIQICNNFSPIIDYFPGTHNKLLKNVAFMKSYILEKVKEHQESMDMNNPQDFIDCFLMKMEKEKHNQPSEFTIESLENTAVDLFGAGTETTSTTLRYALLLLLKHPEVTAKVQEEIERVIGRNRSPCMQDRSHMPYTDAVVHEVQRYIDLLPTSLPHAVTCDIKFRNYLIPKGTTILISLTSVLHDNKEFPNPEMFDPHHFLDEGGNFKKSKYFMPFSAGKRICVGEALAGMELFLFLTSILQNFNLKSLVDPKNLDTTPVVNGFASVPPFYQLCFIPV

Consider `N#CC1C(C#N)C2CCC1C1C2N1c1ccccc1` (stereo not given), for which the AC50 in [1] was 7.8 µM (active).
As for `CCN1CCN(c2ccc(S(=O)(=O)N3CCCCC3)cc2NC(=O)/C=C/c2ccc(OC(F)F)cc2)CC1`, the IC50 was 4.28 µM (active) in series [2] and 7.32 µM (active) in [3].
Turning to `Cc1ccc2c(c1)C1CN(C)CCC1N2CC(=O)N(C)c1ccccc1` (stereo not given), the IC50 was 5.51 µM (active) in series [2] and 9.94 µM (active) in series [3].
As for `O=C(Nc1ccccc1)c1cc2ccccc2o1`, the IC50 in the series “cells” was 6.22 µM (active). Also, the CC50 in series [4] is > 40 µM (active).
As for `OCCNC1=NCCN1`, the IC50 in series [2] is 2.2 µM (active); in [3] it was 1.95 µM (active).
Turning to `O=C(NC1CCCC1)c1cc(Cl)ccc1[N+](=O)[O-]`, in series [1], the AC50 is 0.948 µM (active).
For `CCOC(=O)N1CCN(C(=O)c2oc3ccc(S(=O)(=O)N4CCCCC4)cc3c2C)CC1`, the results for the AC50 at Cytochrome P450 2C19, at Cytochrome P450 2D6 and at Cytochrome P450 3A4 were 28.2 µM (inconclusive), 20 µM (inconclusive) and “inconclusive”, respectively.
For `O=C(CSCc1c(Cl)cccc1Cl)Nc1ccccc1-c1ccccc1`, the IC50 in [5] was 6.07 µM (active); in series [6], 5.69 µM (active).
Turning to `COc1c(Br)cc2c(C)c(C(=O)N3CCOCC3)oc2c1Br`, the EC50 in series [7] was > 50 µM (active).
Regarding `N=C(N)SCCc1ccc(CCSC(=N)N)cc1`, the half-maximal activity concentration (AC50) on Cytochrome P450 2D6 was 31.6 µM (inconclusive); at Cytochrome P450 3A4, “inconclusive”.
As for `Clc1ccc(C2=Nn3c(nnc3-c3[nH]nc4c3CCC4)SC2)cc1Cl`, the IC50 is 8.69 µM (active) in series [5] and 9.8 µM (active) in series [6].
Turning to `C1=C(N2CCOCC2)/C(=C/c2nc3ccccc3[nH]2)CC1`, the IC50 was > 109 µM (not active) against Estrogen receptor beta [8] and 23.8 µM (active) at Estrogen receptor beta [9].
Consider `COc1ccc2nc(NC(=O)Nc3ccccc3)sc2c1` [FRENTIZOLE], for which the half-maximal effective concentration (EC50) in series [7] was > 50 µM (active).
Consider `CSC1=NC(=O)/C(=C/c2ccc(SC)cc2)S1`, for which the AC50 in series [1] is 16.2 µM (active).
Take `Cc1ccc2c(Cl)cc(Cl)c(OCC(=O)NCc3ccco3)c2n1`: the figures for the IC50 (against Estrogen receptor beta [8]; in [10]; on Estrogen receptor beta [9]) were > 50 µM (not active), 12.5 µM (active) and < 1.56 µM (active), respectively.
With `CCOc1ccc2nc(NC(=O)CS(=O)(=O)c3ccc(C)cc3)sc2c1`, the IC50 in series [5] was > 35 µM (not active); in series [6] it was > 12 µM (not active).
`COc1ccccc1N=Nc1[nH]c2ccc(C)cc2c1O`: the IC50 was 6.59 µM (active) in series [2] and 6.6 µM (active) in [3].
`Cc1ccc(OCCCCN(C)Cc2ccccc2)c(Br)c1`: in [11], the AC50 is 9.59 µM (active). Besides, the values for the IC50 in series [5] and in series [6] were 12 µM (not active) and 8.33 µM (active), respectively.
As for `CC(=O)O[C@@H]1C[C@H]2C(C)(C)C(=O)C=C[C@]2(C)[C@H]2CC[C@@]3(C)[C@H](c4ccoc4)OC(=O)[C@H]4O[C@]43[C@@]21C` [GEDUNIN], the CC50 with Vero was 22.2 µM (active). Moreover, in series [12], the AC50 was 4.57 µM (active). The EC50 on Protein RecA is 16.1 µM (active).
Regarding `Cc1ccc(/C=N/NC(=O)CSc2nc3ccccc3n2C)s1`, the AC50 result at Cytochrome P450 2C9 is listed as “inconclusive”. Also, in series [7], the EC50 was > 50 µM (active).
Regarding `O=S(=O)(c1ccccc1)N1CCC2(CC1)CN(C(c1ccccc1)c1ccccc1)C2`, the AC50 result on Cytochrome P450 3A4 is given as “inconclusive”.
